From patent US20070292405A1, “Uses of Erss Modulators” (priority 2004, published 2007)

What was measured:
[1] = target: T1, mouse ERα receptor (mERα) (Mus musculus, UniProt P19785); assay: Luciferase reporter assay: transactivation of (ERE)-TK-Luc by ERα in COS cells; assay type: cell-based; conditions: for activation of ERα (in words): compound alone, 7HD at similar concentration as for ERβ, ICI 182, 780 at 1 μM
T1 construct: expressed in transfected cells; host or cells: COS (COS-1)
T1 sequence (P19785 1-599): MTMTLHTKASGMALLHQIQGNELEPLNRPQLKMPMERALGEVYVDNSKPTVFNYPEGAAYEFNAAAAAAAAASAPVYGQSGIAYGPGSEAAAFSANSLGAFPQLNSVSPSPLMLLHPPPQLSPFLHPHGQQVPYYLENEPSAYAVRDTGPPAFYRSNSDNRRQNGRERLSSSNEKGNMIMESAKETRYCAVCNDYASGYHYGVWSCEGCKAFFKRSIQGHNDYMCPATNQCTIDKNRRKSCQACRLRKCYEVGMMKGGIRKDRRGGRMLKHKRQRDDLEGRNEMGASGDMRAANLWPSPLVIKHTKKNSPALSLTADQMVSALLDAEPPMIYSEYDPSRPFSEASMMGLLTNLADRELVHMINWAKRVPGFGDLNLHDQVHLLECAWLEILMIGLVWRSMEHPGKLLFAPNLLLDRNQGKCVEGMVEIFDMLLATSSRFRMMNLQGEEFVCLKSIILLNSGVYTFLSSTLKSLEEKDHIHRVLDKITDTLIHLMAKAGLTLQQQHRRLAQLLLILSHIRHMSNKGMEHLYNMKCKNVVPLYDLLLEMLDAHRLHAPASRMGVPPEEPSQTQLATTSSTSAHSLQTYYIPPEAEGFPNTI
Procedure: (§1) Values shown are means (±S.E.M.) of 3 to 5 independent experiments each carried out in triplicate.
(§2) COS-1 cells and HepG2 cells were maintained in high glucose Dulbecco's minimum essential medium (DMEM) containing penicillin (25 units/ml), streptomycin (25 μg/ml), and 10% fetal calf serum (v/v). Cells were seeded at a density of 5×10^5 cells/dish and left to adhere overnight. On the day of the transfection, the medium was replaced with DMEM lacking phenol red supplemented with 10% DCC-FCS (v/v). Transfections were carried out using the calcium phosphate procedure according to standard protocols with 10 μg DNA ([…] expression plasmid, 1-5 μg reporter plasmid, 1 μg pCH110 encoding β-galactosidase used as internal control (Pharmacia) and 3-7 μg pGEM3). Expession plasmid were: the mouse ERα receptor (mERα gift from Prof. M. Parker, London U.K. (31)), human ERβ. receptor (hERβ; from Dr R. White, London U.K. (32)) and human androgen receptor (pSVARo; Prof. A. Brinkman, Rotterdam Holand). […] Reporter plasmids were: (ERE)-TK-Luc (gift From Dr V. Giguere, Montreal, Canada) for estrogen responsivity and PSA (PSA61-luc, Prof. J. Trapman, Rotterdam Holland) for androgen responsivity. […] Following cell lysis, luciferase and β-galactosidase activities were measured as described (33). Data are expressed as relative luciferase/β-galactosidase and are means±S.E.M. from at least three independent experiments.
(§3) Both COS-1 cells and HepG2 cells were used and both these cell lines require exogenous AR, ERα and ERβ to activate androgen (PSA) or estrogen (ERE) responsive reporter genes.

3β-HSD = assay: Production of A/anedione from DHEA in human prostate chips (TLC); assay type: biochemical; conditions: 1 μM trilostane
human ERβ receptor = target: T2, human ERβ receptor (Homo sapiens, UniProt Q92731); assay: Ligand-competition study: [3H]-E2 binding to in vitro synthesised ERβ protein; conditions: 7HD 0-250 μM, 16 h, reticulocyte lysate
T2 construct: made in house; host or cells: cell-free: TnT-coupled reticulocyte lysate system (Promega)
T2 sequence (Q92731 whole entry): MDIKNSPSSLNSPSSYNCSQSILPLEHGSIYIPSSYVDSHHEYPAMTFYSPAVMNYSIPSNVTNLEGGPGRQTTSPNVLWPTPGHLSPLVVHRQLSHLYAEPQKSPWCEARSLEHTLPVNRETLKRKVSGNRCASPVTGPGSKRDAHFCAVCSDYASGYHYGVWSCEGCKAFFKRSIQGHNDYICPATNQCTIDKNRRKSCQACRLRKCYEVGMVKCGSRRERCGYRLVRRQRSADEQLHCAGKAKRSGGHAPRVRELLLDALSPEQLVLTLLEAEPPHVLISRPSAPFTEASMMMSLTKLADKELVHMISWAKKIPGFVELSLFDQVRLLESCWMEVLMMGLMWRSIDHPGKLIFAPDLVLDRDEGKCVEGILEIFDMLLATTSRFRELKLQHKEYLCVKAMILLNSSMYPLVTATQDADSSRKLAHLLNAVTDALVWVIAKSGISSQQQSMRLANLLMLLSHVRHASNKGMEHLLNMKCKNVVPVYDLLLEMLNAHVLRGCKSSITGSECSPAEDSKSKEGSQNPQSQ
Procedure: Reticulocyte lysate containing ERβ protein was equilibrated for 16 h with […] [3H]-E2 and the indicated fold excess of 7HD. Data represent [3H]-E2 bound in presence of 7HD (0-250 μM). [3H]-E2 binding in the absence of 7HD was set at 100%. *, p<0.001 and γ, p<0.01; 7HD vs control without 7HD.
Human ERβ clone was synthesised in vitro using the TnT-coupled reticulocyte lysate system following manufacturer instructions (Promega, Southampton, U.K.). Translation reaction mixtures were diluted five times with TEDGMo buffer (40 mM Tris/Hcl, pH 7.4/1 mM EDTA/10% (vol/vol) glycerol/10 mMNa2MoO4/10 mM DTT) and 0.1 ml aliquots were incubated for 16 h at 4° C. with 0.5 nM [2,4,6,7-^3H]4-E2 (specific radioactivity 89 Ci/mmol) in presence of either 0, 1, 5, 10, 20, 50 and 250 μM of 7HD. Bound and unbound steroids were separated by filtration.
The ability of 7HD to inhibit [^3H]-E2 binding was also measured by a competition binding assay using human ERβ receptor synthesised in vitro from our human ERβ clone (hERβ) using a TnT-coupled reticulocyte lysate system (FIG. 7). In our competition study, 7HD interacted with ERβ receptor and inhibited [^3H]-E2 binding dose-dependently.

[2] = target: T3, human androgen receptor (hAR) (Homo sapiens, UniProt P10275); assay: Luciferase reporter assay: transactivation of PSA-Luc reporter in COS-1 cells containing hAR; assay type: cell-based
T3 construct: expressed in transfected cells; host or cells: COS-1
T3 sequence (P10275 1-920): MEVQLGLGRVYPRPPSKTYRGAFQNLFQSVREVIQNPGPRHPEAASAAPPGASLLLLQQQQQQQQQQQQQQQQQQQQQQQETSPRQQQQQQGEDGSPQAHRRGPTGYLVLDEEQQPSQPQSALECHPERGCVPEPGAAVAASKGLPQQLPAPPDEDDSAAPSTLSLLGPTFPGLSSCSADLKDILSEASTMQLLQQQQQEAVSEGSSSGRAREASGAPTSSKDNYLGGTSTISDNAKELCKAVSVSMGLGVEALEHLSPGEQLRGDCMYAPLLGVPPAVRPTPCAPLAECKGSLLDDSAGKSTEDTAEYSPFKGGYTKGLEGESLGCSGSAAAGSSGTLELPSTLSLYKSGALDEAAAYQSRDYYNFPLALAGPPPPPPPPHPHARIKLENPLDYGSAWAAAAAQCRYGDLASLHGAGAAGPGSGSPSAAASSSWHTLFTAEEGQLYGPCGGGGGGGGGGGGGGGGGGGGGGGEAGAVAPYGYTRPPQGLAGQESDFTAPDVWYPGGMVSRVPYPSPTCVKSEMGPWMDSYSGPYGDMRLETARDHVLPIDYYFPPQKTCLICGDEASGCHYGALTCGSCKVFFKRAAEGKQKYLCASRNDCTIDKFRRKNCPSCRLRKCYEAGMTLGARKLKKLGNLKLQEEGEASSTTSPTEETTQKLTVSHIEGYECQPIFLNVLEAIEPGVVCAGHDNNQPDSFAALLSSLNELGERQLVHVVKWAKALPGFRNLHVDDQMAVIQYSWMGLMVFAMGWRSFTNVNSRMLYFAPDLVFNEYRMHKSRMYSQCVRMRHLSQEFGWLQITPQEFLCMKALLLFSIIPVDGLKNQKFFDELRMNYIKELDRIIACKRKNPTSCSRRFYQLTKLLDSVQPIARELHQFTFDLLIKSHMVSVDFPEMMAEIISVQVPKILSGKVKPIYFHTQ
Procedure: as §1
COS-1 cells and HepG2 cells were maintained in high glucose Dulbecco's minimum essential medium (DMEM) containing penicillin (25 units/ml), streptomycin (25 μg/ml), and 10% fetal calf serum (v/v). Cells were seeded at a density of 5×10^5 cells/dish and left to adhere overnight. On the day of the transfection, the medium was replaced with DMEM lacking phenol red supplemented with 10% DCC-FCS (v/v). Transfections were carried out using the calcium phosphate procedure according to standard protocols with 10 μg DNA ([…] expression plasmid, 1-5 μg reporter plasmid, 1 μg pCH110 encoding β-galactosidase used as internal control (Pharmacia) and 3-7 μg pGEM3). Expession plasmid were: the mouse ERα receptor (mERα gift from Prof. M. Parker, London U.K. (31)), human ERβ. receptor (hERβ; from Dr R. White, London U.K. (32)) and human androgen receptor (pSVARo; Prof. A. Brinkman, Rotterdam Holand). […] Following cell lysis, luciferase and β-galactosidase activities were measured as described (33). Data are expressed as relative luciferase/β-galactosidase and are means±S.E.M. from at least three independent experiments. […]

[3] = target: T4, human ERβ receptor (hERβ) (Homo sapiens, UniProt Q92731); assay: Luciferase reporter assay: transactivation of (ERE)-TK-Luc by ERβ in HepG2 cells; assay type: cell-based
T4 construct: expressed in transfected cells; host or cells: HepG2
T4 sequence (Q92731 whole entry): as the sequence (Q92731 whole entry) above
Procedure: as §1, §2, §3

[4] = system: whole human prostate chips; assay: DHEA metabolism in whole human prostate chips, metabolites analysed by HPLC; assay type: in vitro ADME

## C[C@]12CC[C@@H]3c4ccc(O)cc4C[C@@H](CCCCCCCCC[S+]([O-])CCCC(F)(F)C(F)(F)F)[C@H]3[C@@H]1CC[C@@H]2O (some centres unmarked) [ICI 182, 780]
[1]; 1 μM
  effect on E2 and 7HD-induced transcription of luciferase, ERα co-transfected cells: completely abolished
[1]
  activation of ERα (in words): could not stimulate

## C[C@]12CC[C@H]3[C@@H](CC[C@@]45O[C@@H]4C(O)=C(C#N)C[C@]35C)[C@@H]1CC[C@@H]2O [Trilostane]
3β-HSD
  effect on production of A/anedione: successfully blocked

## C[C@]12CC[C@H](O)CC1=C[C@@H](O)[C@@H]1[C@@H]2CC[C@]2(C)C(=O)CC[C@@H]12 [7HD, 7α-hydroxyDHEA]
Human ERβ receptor
  inhibition of [3H]-E2 binding to ERβ: dose-dependently
[2]
  activation of androgen receptor dependent transcription of PSA-luciferase reporter (in words): unable to activate
[1]
  activation of ERα (in words): minimal, non-specific activation
[3]; (ERE)-TK-Luc, HepG2 cells, read-out: EC50 of activation of ERβ-mediated transcription
  EC50: 6.2 µM
[3]; E2 0.1 nM, p<0.01
  transcriptional effect combined with sub-minimal dose of E2: additive
[3]; compound alone, ICI 182, 780 at 1 μM
  activation of ERβ-mediated transcription (in words): significantly activated

## C[C@]12CC[C@H](O)CC1=CC[C@@H]1[C@@H]2CC[C@]2(C)C(=O)CC[C@@H]12 [DHEA, dehydroepiandosterone]
[4]
  share of DHEA metabolites that represent A/enetriol: 9%
  share of DHEA metabolites that were products of 3β-HSD and 17β-HSD: 37%
